Data published in patent publication US20240216344A1, “THIAZOLIDINEDIONE ANALOGS FOR THE TREATMENT OF NAFLD AND METABOLIC DISEASES” (Cirius Therapeutics, Inc., priority 2019, published 2024).
Read-outs that look alike come from different tables or passages of the source.

Legend:
[1] = tested on: patients with NASH; details: cited from earlier work
[2] = tested on: patients with NASH; assay: Meta-analysis of 17 NASH clinical trials: change from baseline in LFTs and biomarkers by study arm, composite outcome; type: in vivo, human; details: 17 NASH clinical trials
Procedure: Meta-regressions of NASH clinical trials were performed to examine associations between biomarker and histological changes within treatment groups, and to additionally examine associations between treatment effects on biomarkers and on liver histology. Trials that met the following criteria were included: • Randomized controlled clinical trial • Paired biopsies performed at baseline and follow-up, scored using the NASH CRN system.
• Published results at baseline, follow-up, or changes from baseline for any the following liver injury markers or biomarkers: alanine aminotransferase (ALT), aspartate aminotransferase (AST), alkaline phosphatase, hemoglobin A1c (HbA1c), gamma-glutamyltransferase (GGT), insulin, cytokeratin-18 (CK-18), or Enhanced Liver Fibrosis (ELF) score. Variables selected were based on variables whose change was commonly reported in multiple studies. • Changes in histological scores for ballooning, inflammation, steatosis, and fibrosis, or the pre-determined endpoints of NASH resolution without worsening fibrosis or improvement in fibrosis with no worsening of NASH.
All results from a search of PubMed for the keywords (“nonalcoholic steatohepatitis” or “non-alcoholic steatohepatitis”) and (“clinical trial” or “randomized”) and filtered for “Clinical Trial” were reviewed. EudraCT and ClinicalTrials.gov were searched for the keyword “nonalcoholic steatohepatitis” with results further filtered for phase 2 or 3, interventional, terminated or completed trials. These three sources returned 265 (PubMed), 153 (ClinicalTrials.gov), and 56 (EudraCT) results, which were each individually reviewed for inclusion in the analysis. Data extracted by one analyst from each source that included means and SDs at baseline, end of study, and changes from baseline to end of study for continuous variables were verified and corrected by a second analyst. Where SDs were not available, any provided estimate of variation was used to derive the SD where possible; a plot-digitizer program was used where data were presented in figures only. Data for dichotomous endpoints were extracted as the number of subjects with the event and corresponding sample size.
Random effects weighted least squares meta-regressions with inverse variance weighting were used to examine the association of changes in ALT, AST, CK-18, HbA1c, fasting insulin levels, ELF, alkaline phosphatase and GGT with biopsy outcomes. CK-18[M30] was measured in all studies except EMMINENCE where CK-18[M651 was reported. These associations were assessed at an individual cohort level (within treatment group), as well as based on the treatment effect. Percent change from baseline in liver injury makers and biomarkers was used as the predictor when examining the associations in the individual cohorts with outcomes while the treatment ratio, the ratio of active to placebo with respect to the relative changes from baseline, was used as the predictor when assessing the association with the treatment effect on outcomes. Standardized mean changes (mean/SD) or standardized mean treatment differences (mean difference/pooled SD) were used for continuous outcomes and Freeman-Tukey double arcsine transformed proportions or log odds ratios were used for dichotomous outcomes. Meta-regression results were computed using the metafor package available in R. P-values <0.05 were considered statistically significant.
From the meta-regression results, ranks for the association with responses and treatment effects for each histologic outcome (changes in ballooning, inflammation, steatosis, and fibrosis; NASH resolution without worsening of fibrosis, and fibrosis improvement without worsening of NAS) were assigned across seven biomarkers (AST, GGT, HbA1c, insulin, CK-18, ELF, and alkaline phosphatase) for both the slope and the mediator p-value (ranks 1-7, with 7 assigned to the biomarker with the greatest slope or lowest p-value). An average rank across all outcomes was then assigned to each biomarker. […]

[3] = tested on: patients with NASH; details: cited from earlier work; remark: listed apart in the source
[4] = ARREST, 400 mg, follow-up 12 months
[5] = ARREST, 600 mg, follow-up 12 months
[6] = CENTAUR, 150 mg, follow-up 12 months
[7] = GOLDEN trial, Elafibranor 120 mg
[8] = GOLDEN, 80 mg, follow-up 12 months
[9] = GOLDEN, 120 mg, follow-up 12 months
[10] = ENCORE-HF trial, Emricasan 5 mg
[11] = ENCORE-HF trial, Emricasan 50 mg
[12] = MADRIGAL trial, Resmetirom 80 mg
[13] = MADRIGAL, 80 mg, follow-up 9 months

## CCCCCCCCCCCCCCCCCCCC(=O)N[C@H]1CC[C@@]2(C)[C@@H](C1)C[C@@H](O)[C@@H]1[C@@H]2C[C@H](O)[C@]2(C)[C@@H]([C@H](C)CCC(=O)O)CC[C@@H]12 [Aramachol, reference compound]
[1]; ARREST trial, Aramchol 400 mg
  Fibrosis Improvement: 17/80
  NASH Resolution: 6/80
[1]; ARREST trial, Aramchol 600 mg
  Fibrosis Improvement: 23/78
  NASH Resolution: 13/78
[2]
  treatment effect on the surrogate endpoint (weighted average of changes in AST, CK-18, HbA1c): largest treatment effects
[3]; [4]
  % Change from Baseline ALT: −18.06%
  % Change from Baseline HbA1c: −0.62%
[3]; [5]
  % Change from Baseline ALT: −32.02%
  % Change from Baseline HbA1c: −1.79%

## CCCCOCCOc1ccc(-c2ccc3c(c2)/C=C(/C(=O)Nc2ccc([S@@+]([O-])Cc4cncn4CCC)cc2)CCCN3CC(C)C)cc1 [Cenicriviroc]
[1]; CENTAUR trial, Cenicriviroc 150 mg
  Fibrosis Improvement: 29/145
[3]; [6]
  % Change from Baseline ALT: 11.23%
  % Change from Baseline AST: 11.67%
  % Change from Baseline Alk Phos: 1.24%
  % Change from Baseline CK-18: −12.34%
  % Change from Baseline GGT: 2.68%
  % Change from Baseline HbA1c: −0.75%
  % Change from Baseline Insulin: 2.14%

## CSc1ccc(C(=O)/C=C/c2cc(C)c(OC(C)(C)C(=O)O)c(C)c2)cc1 [Elafibranor]
[1]; GOLDEN trial, Elafibranor 80 mg
  NASH Resolution: 12/93
[1]; [7]
  Change from Baseline, mean: Ballooning: −0.07
  Change from Baseline, mean: Fibrosis: −0.07
  Change from Baseline, mean: Inflammation: −0.32
  Change from Baseline, mean: Steatosis: 0.02
  NASH Resolution: 17/89
[3]; [8]
  % Change from Baseline ALT: −9.72%
  % Change from Baseline AST: −16.87%
  % Change from Baseline Alk Phos: −25.87%
  % Change from Baseline GGT: −34.54%
[3]; [9]
  % Change from Baseline ALT: −19.75%
  % Change from Baseline AST: −30.22%
  % Change from Baseline Alk Phos: −26.41%
  % Change from Baseline GGT: −41.68%

## C[C@H](NC(=O)C(=O)Nc1ccccc1C(C)(C)C)C(=O)N[C@@H](CC(=O)O)C(=O)COc1c(F)c(F)cc(F)c1F [Emricasan]
[1]; [10]
  Change from Baseline, mean: Ballooning: 0.04
  Change from Baseline, mean: Fibrosis: 0.41
  Change from Baseline, mean: Inflammation: −0.11
  Change from Baseline, mean: Steatosis: −0.20
  Fibrosis Improvement: 12/107
  NASH Resolution: 4/107
[1]; [11]
  Change from Baseline, mean: Ballooning: 0.13
  Change from Baseline, mean: Fibrosis: 0.36
  Change from Baseline, mean: Inflammation: 0.09
  Change from Baseline, mean: Steatosis: −0.27
  Fibrosis Improvement: 13/106
  NASH Resolution: 7/106
[3]; ENCORE-HF, 5 mg
  % Change from Baseline ALT: −35.28%
  % Change from Baseline AST: −18.47%
  % Change from Baseline CK-18: −36.86%
[3]; ENCORE-HF, 50 mg
  % Change from Baseline ALT: −45.17%
  % Change from Baseline AST: −19.83%
  % Change from Baseline CK-18: −45.07%

## CC(C)c1cc(Oc2c(Cl)cc(-n3nc(C#N)c(=O)[nH]c3=O)cc2Cl)n[nH]c1=O [Resmetirom]
[1]; [12]
  Fibrosis Improvement: 21/73
  NASH Resolution: 18/73
[3]; [13]
  % Change from Baseline ALT: −30.80%
  % Change from Baseline AST: −21.08%
  % Change from Baseline Alk Phos: 7.85%
  % Change from Baseline CK-18: −35.15%
  % Change from Baseline ELF: −7.17%
  % Change from Baseline GGT: −18.76%
  % Change from Baseline HbA1c: 0.63%
